What is called IC50 is the point on the concentration scale where inhibition reaches its midpoint. A higher IC50 goes with weaker potency in that assay.

We go through eight compounds from patent US7390797B2, “Fused indazole compounds” (Eisai Co., Ltd., priority 2002, dated 2008).

The target in this experiment is T1, Human JNK 3 (Homo sapiens, UniProt P53779).
T1 construct: made in house; host or cells: Escherichia coli
T1 sequence (P53779 whole entry): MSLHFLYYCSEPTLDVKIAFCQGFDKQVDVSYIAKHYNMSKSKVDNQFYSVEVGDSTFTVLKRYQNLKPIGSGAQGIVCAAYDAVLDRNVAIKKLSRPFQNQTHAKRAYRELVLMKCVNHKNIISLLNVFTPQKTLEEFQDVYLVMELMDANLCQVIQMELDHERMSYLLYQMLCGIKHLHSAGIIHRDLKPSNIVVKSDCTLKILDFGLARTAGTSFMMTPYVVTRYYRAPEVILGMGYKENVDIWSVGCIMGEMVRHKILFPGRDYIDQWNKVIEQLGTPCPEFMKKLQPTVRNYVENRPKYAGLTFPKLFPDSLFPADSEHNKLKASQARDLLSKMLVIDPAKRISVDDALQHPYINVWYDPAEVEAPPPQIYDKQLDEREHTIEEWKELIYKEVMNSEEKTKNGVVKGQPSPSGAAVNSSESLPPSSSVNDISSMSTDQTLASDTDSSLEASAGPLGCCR
The experiment is described as follows: Determination of JNK 3 Inhibition. Format: biochemical. The settings on record: GST-JNK 3 enzyme, GST-c-Jun (1-169) substrate, [γ-33P]ATP, 3.33 μM ATP, 30 minutes, SPA beads. As to the method:
Test Example 1 Determination of JNK 3 Inhibition
Human JNK 3 was expressed as a fusion protein (GST-JNK 3) with glutathione S-transferase (GST) in Escherichia coli and was purified using glutathione Sepharose 4B beads. The amino acid sequence 1-169 of c-Jun was […] as a fusion protein (GST-c-Jun) with GST in Escherichia coli, was purified using glutathione Sepharose 4B beads and was used as a substrate. A test compound was diluted with 100% dimethyl sulfoxide into 10 mM and was then further diluted with 10% aqueous dimethyl sulfoxide solution to yield a dilution series. To each well of 96-well OPTI plate (available from Packard) were placed 20 μl of the diluted compound, 30 μl of a substrate solution (1.2 μg of GST-c-Jun, […], 0.2 μCi of [γ-^33P]ATP, 25 mM of HEPES pH=7.5, 10 mM of magnesium acetate, and 3.33 μM of ATP), and 50 μl of an enzyme solution (0.04 μg of GST-JNK 3, 25 mM of HEPES pH=7.5, and 10 mM magnesium acetate) up to 100 μl, and the mixture was allowed to react for 30 minutes. After terminating the reaction by adding 100 μl of a reaction terminator (80 mM ATP, 5 mg/ml glutathione SPA beads (available from Amersham Pharmacia Biotech)), the reaction mixture was shaken for 30 minutes. The mixture was centrifuged at room temperature at 1000×g for 5 minutes, and the emission intensity thereof was determined on a TopCount™ illuminator (available from Packard). The activity is expressed by the 50% inhibitory concentration on the enzymatic activity of JNK, i.e., IC50 (nM).
In the case of `OCc1cccc2c1CCc1cccc3[nH]nc-2c13` [Example 1, 6,7-Dihydro-2H-benzo[6,7]cyclohepta[cd]indazol-8-ylmethanol], the IC50 is ≤ 300 nM.
Consider `OCc1cccc2c1C=Cc1cccc3[nH]nc-2c13` [Example 6, 2H-Benzo[6,7]cyclohepta[cd]indazol-8-ylmethanol], for which the IC50 is ≤ 300 nM.
As to `Nc1cccc2c1CCc1cccc3[nH]nc-2c13` [Example 8, 6,7-Dihydro-2H-benzo[6,7]cyclohepta[cd]indazole-8-amine], the IC50 was ≤ 300 nM.
`C1=Cc2cccc3[nH]nc(c23)-c2ccccc21` [Example 9, 2H-Benzo[6,7]cyclohepta[cd]indazole]: the IC50 is ≤ 300 nM.
For `O=C(NCc1ccco1)c1cccc2c1C=Cc1cccc3[nH]nc-2c13` [Example 20, N8-(2-Furylmethyl)-2H-benzo[6,7]cyclohepta[cd]indazole-8-carboxamide], the IC50 was ≤ 300 nM.
In the case of `O=C(NC1CC1)c1cccc2c1C=Cc1cccc3[nH]nc-2c13` [Example 21, N8-Cyclopropyl-2H-benzo[6,7]cyclohepta[cd]indazole-8-carboxamide] it was ≤ 300 nM; in that of `Cc1ccc2[nH]nc3c2c1NC(=O)c1ccccc1-3` [Example 25, 5-Methyl-6,7-dihydro-2H-benzo[5,6]azepino[4,3,2-cd]indazol-7-one], ≤ 300 nM; in that of `Cc1cc(Br)c2[nH]nc3c2c1NC(=O)c1ccccc1-3` [Example 26, 3-Bromo-5-methyl-6,7-dihydro-2H-benzo[5,6]azepino[4,3,2-cd]indazol-7-one], ≤ 300 nM.
